Type in all cases: cell-based
For experiment [1], the target named is T1, EGFR exon 20 ASV Ins V769_D770 (Ba/F3 cells) (Homo sapiens, UniProt P00533, INS769ASV).
T1 construct: expressed in transfected cells; host or cells: Ba/F3 (murine pro-B cells), retroviral transduction, puromycin selection, IL3-independent pool
Put plainly: Inhibitor activity on EGFR phosphorylation (pEGFR AlphaLISA, 2 h), Ba/F3 EGFR exon 20 ASV Ins. The note with it: EGFR phosphorylation, AlphaLISA, 2 hours; read-out: ASV IC50 (pEGFR). The text has this:
Example B. Inhibitor Activity on EGFR phosphorylation (pEGFR)
EGFR mutant Ba/F3 cells were generated by transduction with retrovirus containing vectors expressing EGFR L858R, EGFR exon 19del, EGFR L858R/C797S, EGFR exon 20 NPG Ins D770_N771, EGFR exon 20 ASV Ins V769_D770, or EGFR exon 20 SVD Ins D770_N771 genes along with a puromycin selection marker. Transduced cells are selected with puromycin for 7 days and are then be transferred into culture media without Interleukin 3 (IL3). Surviving cells are confirmed to express EGFR by Western blot and maintained as a pool. CUTO14 cells were obtained from Dr. Robert C. Doebele at the University of Colorado. The IC50 date are included in Table 6 and Table 7.
1.1 Cells are harvested from flask into cell culture medium and the cell number counted.
1.2 Cells are diluted with culture medium to the desired density and 40 μL of cell suspension is added into each well of 384-well cell culture plate and the seeding density is 50K cells/well (Ba/F3) or 12.5K cells/well (CUTO14).
2 Compound Preparation and Treatment
2.1 Test compounds are dissolved to 10 mM in a DMSO stock solution. 45 μL of stock solution is transferred to a 384 polypropylene plate (pp-plate). Perform 3-fold, 10-point dilution via transferring 15 μL compound into 30 μL DMSO using a TECAN (EVO200) liquid handler.
2.2 Spin plates at room temperature at 1,000 RPM for 1 minute.
2.3 Transfer 5 nL of diluted compound from compound source plate into the cell plate.
2.4 After compound treatment for 2 hours, perform pEGFR detection by AlphaLISA for compound treatment plates as described in “Detection” section.
3 Detection by pEGFR AlphaLISA (Perkin-Elmer)
3.1 Plates are removed from incubators and equilibrated at room temperature for 10 minutes, and media was removed
3.2 10 μL of lysis buffer is added and plates shaken at 600 rpm for 1 hr.
3.3 Prepare acceptor mix just before use and dispense 5 μL of acceptor mix to all the wells. Shake 350 rpm for Ihr in the dark
3.4 Prepare donor mix under low light conditions prior to use. Dispense 5 μL of donor mix to all the wells. Mix well on the shaker, seal and wrap in aluminum foil and incubate 1.5 hrs at room temperature in the dark
3.5 Transfer 18.5 μL mixture to OptiPlate 384, and read using an Envision. The IC50 date were included in Table 6 and Table 7.

Experiment [2] has as its target T1, EGFR exon 20 ASV Ins V769_D770 (Ba/F3 cells). As to the kind of experiment: Inhibitor activity on EGFR-dependent cell growth (CellTiter-Glo, 72 h), Ba/F3 EGFR exon 20 ASV Ins. The note with it: read-out: BaF3 ASV IC50. In a few lines:
(§1)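 IC50s derive from a sigmoidal dose–response fit of CellTiter-Glo signal. The signal was normalised between […]-treated cells and cell-free medium. Ba/F3 mutant-EGFR cells, seeded at 400–800/well depending on the line, had 72 h of exposure to a 10-point, 3-fold compound series.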
For orientation: ATP-based viability assays read luminescence as a measure of living cells.

The target in experiment [3] is T2, EGFR exon 20 FQEA Ins A763_V764 (Ba/F3 cells) (Homo sapiens, UniProt P00533, INS763FQEA).
T2 construct: expressed in transfected cells; host or cells: Ba/F3 (murine pro-B cells), retroviral transduction, puromycin selection, IL3-independent pool
Put plainly: Inhibitor activity on EGFR-dependent cell growth (CellTiter-Glo, 72 h), Ba/F3 EGFR exon 20 FQEA Ins. The following applies: read-out: BaF3 FQEA IC50. In a few lines: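 For each mutant line, growth depends on EGFR signalling in the absence of IL3. Density per well: 400 for L858R, 600 for the C797S double mutant, 800 for exon 19del and FQEA. Ten threefold dilutions were applied for 72 h. %Inhibition = 100×(DMSO − sample)/(DMSO − medium blank).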

Another experiment has as its target T3, EGFR WT (Ba/F3 cells) (Homo sapiens, UniProt P00533).
T3 construct: expressed in transfected cells; host or cells: Ba/F3 (murine pro-B cells), retroviral transduction, puromycin selection, maintained with EGF
Put plainly: Inhibitor activity on EGFR-dependent cell growth (CellTiter-Glo, 72 h), Ba/F3 EGFR WT. The following applies: read-out: BaF3 WT IC50. In a few lines:
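This growth assay used Ba/F3 cells that depend on wild-type EGFR and are kept in EGF without IL3. Compounds were made up as 10 mM DMSO stocks and diluted 3-fold over 10 points. 120 nL went onto 600 cells/well. After 72 hours, 40 μL CellTiter-Glo was added and luminescence read on EnVision after 30 min.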

The target in experiment [4] is T4, EGFR exon 20 SVD Ins D770_N771 (Ba/F3 cells) (Homo sapiens, UniProt P00533, INS770SVD).
T4 construct: expressed in transfected cells; host or cells: Ba/F3 (murine pro-B cells), retroviral transduction, puromycin selection, IL3-independent pool
As to the kind of experiment: Inhibitor activity on EGFR-dependent cell growth (CellTiter-Glo, 72 h), Ba/F3 EGFR exon 20 SVD Ins. The following applies: read-out: BaF3 SVD IC50. In a few lines:
as §1

The structures appear in SMILES notation. Where only a bound is given, the exact number is not on record here.

T4 sequence (P00533 with tags, fused parts or gaps INS770SVD): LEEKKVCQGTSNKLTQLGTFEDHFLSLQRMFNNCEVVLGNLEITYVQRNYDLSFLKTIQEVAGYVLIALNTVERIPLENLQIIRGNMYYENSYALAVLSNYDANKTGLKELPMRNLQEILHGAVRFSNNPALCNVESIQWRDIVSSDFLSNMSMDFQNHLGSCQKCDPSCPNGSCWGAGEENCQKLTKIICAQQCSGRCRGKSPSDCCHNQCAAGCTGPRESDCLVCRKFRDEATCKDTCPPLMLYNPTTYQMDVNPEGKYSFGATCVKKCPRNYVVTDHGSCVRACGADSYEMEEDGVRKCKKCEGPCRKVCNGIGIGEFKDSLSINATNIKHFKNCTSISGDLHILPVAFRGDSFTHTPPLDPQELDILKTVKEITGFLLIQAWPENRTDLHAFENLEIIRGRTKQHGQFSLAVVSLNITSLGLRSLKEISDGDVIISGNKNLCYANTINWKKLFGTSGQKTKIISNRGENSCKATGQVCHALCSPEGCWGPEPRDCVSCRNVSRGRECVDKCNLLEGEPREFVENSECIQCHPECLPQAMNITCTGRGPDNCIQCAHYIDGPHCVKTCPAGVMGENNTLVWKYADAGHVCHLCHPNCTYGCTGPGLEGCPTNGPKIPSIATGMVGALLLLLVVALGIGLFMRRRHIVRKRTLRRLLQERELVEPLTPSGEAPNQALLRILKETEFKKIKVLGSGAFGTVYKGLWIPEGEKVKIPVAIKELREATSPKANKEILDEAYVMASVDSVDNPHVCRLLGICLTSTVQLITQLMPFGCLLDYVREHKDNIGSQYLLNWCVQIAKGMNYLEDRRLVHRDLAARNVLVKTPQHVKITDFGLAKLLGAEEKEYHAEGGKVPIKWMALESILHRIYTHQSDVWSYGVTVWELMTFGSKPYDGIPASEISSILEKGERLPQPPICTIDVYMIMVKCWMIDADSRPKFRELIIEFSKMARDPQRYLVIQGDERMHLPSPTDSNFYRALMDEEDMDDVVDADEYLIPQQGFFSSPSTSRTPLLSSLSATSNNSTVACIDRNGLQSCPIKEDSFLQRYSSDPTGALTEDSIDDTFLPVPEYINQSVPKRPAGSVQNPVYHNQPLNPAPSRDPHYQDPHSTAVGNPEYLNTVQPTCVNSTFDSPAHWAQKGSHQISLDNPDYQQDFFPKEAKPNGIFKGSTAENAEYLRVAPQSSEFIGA
T2 sequence (P00533 with tags, fused parts or gaps INS763FQEA): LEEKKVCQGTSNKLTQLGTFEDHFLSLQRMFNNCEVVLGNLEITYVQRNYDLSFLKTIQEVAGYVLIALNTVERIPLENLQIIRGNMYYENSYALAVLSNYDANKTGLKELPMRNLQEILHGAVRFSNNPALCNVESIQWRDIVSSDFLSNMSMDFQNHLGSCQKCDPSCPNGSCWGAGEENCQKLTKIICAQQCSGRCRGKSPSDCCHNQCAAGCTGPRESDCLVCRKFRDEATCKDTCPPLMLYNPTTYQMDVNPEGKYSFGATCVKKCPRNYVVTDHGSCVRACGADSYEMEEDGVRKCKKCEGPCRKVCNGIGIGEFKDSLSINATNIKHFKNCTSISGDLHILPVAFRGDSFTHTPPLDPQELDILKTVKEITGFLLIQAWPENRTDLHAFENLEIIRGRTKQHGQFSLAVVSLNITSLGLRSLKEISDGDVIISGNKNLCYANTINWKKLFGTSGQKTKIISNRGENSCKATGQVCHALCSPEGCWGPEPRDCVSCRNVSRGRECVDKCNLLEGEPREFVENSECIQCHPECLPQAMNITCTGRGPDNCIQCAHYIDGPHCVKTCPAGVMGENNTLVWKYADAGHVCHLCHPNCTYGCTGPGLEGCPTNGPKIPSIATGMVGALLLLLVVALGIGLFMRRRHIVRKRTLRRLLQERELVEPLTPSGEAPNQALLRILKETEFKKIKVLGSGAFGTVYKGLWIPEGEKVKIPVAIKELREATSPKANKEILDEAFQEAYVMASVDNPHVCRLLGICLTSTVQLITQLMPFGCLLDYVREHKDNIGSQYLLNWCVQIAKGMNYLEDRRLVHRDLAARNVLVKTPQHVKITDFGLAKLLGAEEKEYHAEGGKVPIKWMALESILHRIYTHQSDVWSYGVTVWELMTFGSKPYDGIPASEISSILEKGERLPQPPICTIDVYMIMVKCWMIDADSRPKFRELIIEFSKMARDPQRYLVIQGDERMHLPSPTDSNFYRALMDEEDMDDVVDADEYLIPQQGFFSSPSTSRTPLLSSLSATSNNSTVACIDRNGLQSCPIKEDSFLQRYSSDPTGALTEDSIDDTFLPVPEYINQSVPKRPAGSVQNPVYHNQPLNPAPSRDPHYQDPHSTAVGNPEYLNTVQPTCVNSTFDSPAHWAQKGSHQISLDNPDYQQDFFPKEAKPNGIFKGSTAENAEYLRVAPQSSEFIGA
T1 sequence (P00533 with tags, fused parts or gaps INS769ASV): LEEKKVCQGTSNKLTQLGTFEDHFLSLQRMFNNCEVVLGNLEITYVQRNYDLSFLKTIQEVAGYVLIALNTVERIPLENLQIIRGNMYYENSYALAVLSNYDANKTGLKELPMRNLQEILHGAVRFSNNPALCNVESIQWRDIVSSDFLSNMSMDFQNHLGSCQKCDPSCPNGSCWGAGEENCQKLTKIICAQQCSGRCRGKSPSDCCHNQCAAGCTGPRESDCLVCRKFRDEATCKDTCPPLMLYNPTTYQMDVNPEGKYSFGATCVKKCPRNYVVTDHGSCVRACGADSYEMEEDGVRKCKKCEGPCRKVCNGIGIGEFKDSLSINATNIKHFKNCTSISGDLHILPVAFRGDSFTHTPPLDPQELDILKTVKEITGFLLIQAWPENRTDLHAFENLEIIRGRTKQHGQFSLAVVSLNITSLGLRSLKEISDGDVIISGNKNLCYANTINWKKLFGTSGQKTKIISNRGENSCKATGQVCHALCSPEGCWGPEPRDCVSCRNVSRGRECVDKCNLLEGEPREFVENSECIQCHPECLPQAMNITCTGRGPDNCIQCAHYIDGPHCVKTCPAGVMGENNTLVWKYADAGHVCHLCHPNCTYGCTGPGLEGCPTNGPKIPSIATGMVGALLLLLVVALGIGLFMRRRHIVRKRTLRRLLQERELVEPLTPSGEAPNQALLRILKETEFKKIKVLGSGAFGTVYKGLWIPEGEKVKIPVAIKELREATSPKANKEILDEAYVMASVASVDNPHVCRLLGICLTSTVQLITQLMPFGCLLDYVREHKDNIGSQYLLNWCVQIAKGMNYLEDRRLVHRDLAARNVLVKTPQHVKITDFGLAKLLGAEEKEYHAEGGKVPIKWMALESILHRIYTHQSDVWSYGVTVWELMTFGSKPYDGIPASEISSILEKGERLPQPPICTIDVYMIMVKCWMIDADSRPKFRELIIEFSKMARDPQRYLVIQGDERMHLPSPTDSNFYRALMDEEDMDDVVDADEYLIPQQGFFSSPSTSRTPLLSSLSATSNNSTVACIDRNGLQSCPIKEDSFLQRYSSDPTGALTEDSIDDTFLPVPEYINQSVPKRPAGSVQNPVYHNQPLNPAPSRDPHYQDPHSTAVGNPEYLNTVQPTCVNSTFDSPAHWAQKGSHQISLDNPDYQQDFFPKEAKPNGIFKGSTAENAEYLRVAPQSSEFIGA
T3 sequence (P00533 25-1210): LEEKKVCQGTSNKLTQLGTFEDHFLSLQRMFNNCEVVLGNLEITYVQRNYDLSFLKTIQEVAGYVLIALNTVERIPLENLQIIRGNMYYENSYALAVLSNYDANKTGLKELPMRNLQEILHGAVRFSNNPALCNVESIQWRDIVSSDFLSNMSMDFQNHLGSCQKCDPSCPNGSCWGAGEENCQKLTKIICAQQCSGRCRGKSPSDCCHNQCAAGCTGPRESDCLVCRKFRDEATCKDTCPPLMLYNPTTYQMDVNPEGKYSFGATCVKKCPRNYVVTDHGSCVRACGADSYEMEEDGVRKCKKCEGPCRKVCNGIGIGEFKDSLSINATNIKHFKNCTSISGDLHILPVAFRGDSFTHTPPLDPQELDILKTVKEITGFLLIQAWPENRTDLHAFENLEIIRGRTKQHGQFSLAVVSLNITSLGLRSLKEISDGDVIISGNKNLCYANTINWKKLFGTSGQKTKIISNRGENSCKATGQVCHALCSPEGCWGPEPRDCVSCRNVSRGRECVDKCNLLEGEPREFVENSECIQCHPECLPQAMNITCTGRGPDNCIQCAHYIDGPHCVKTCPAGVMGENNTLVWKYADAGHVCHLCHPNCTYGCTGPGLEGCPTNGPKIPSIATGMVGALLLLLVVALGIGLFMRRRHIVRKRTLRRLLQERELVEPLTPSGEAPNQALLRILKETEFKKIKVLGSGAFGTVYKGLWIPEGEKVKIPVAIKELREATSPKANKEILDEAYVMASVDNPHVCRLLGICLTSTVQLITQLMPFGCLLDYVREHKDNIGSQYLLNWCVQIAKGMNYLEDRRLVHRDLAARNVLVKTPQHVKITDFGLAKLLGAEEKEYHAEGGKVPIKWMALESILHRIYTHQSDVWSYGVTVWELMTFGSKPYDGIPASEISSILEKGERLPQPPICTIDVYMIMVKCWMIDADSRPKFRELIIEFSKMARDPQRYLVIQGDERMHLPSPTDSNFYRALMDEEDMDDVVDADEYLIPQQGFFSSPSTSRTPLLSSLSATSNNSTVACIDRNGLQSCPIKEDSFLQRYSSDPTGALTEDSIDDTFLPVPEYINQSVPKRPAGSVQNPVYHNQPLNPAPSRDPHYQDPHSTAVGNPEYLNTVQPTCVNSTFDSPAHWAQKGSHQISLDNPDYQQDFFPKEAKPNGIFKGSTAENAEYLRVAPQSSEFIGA

In the case of `COc1c(F)cccc1Nc1c(-c2ccnc(C)c2)[nH]c2c1C(=O)NCC2` [compound 261], the IC50 in experiment [1] was 100 to 1000 nM; in experiment [2], more than 1000 nM; in experiment [3], more than 1000 nM; on EGFR WT (Ba/F3 cells), more than 1000 nM; in experiment [4] it was more than 1000 nM.
`N#Cc1c(F)cccc1Nc1c(-c2ccnc(N)n2)[nH]c2c1C(=O)NCC2` [compound 200]: the IC50 was 100 to 1000 nM in experiment [1]; more than 1000 nM in experiment [2]; more than 1000 nM in experiment [3]; more than 1000 nM on EGFR WT (Ba/F3 cells); more than 1000 nM in experiment [4].
Turning to `COc1c(Cl)cccc1Nc1c(-c2ccnc(N)n2)[nH]c2c1C(=O)NC[C@H]2C` [186b], the IC50 is less than 100 nM in experiment [1]; less than 100 nM in experiment [2]; 100 to 1000 nM in experiment [3]; 100 to 1000 nM at EGFR WT (Ba/F3 cells); less than 100 nM in experiment [4].
As to `COc1c(Cl)cccc1Nc1c(-c2ccnc(NCc3ccccc3)n2)[nH]c2c1C(=O)NCC2` [compound 209], the half-inhibitory concentration (IC50) was 100 to 1000 nM in experiment [1]; 100 to 1000 nM in experiment [2]; more than 1000 nM in experiment [3]; more than 1000 nM at EGFR WT (Ba/F3 cells); 100 to 1000 nM in experiment [4].
In the case of `Nc1nccc(-c2[nH]c3c(c2Nc2cccc4scnc24)C(=O)NCC3)n1` [compound 718, 2-(2-aminopyrimidin-4-yl)-3-(1,3-benzothiazol-4-ylamino)-1H,5H,6H,7H-pyrrolo[3,2-c]pyridin-4-one; trifluoroacetic acid], the IC50 was 100 to 1000 nM in experiment [1]; more than 1000 nM in experiment [2]; more than 1000 nM in experiment [3]; more than 1000 nM at EGFR WT (Ba/F3 cells); more than 1000 nM in experiment [4].
On to `COc1c(Cl)cccc1Nc1c(-c2ccnc3[nH]c(=O)oc23)[nH]c2c1C(=O)NCC2` [compound 293], for which the IC50 (in experiment [1]; in experiment [2]; in experiment [3]; at EGFR WT (Ba/F3 cells); in experiment [4]) was more than 1000 nM in each case.
`COc1c(F)cccc1Nc1c(-c2ccncn2)[nH]c2c1C(=O)NCC2` [compound 244]: the IC50 in experiment [1] was 100 to 1000 nM; in experiment [2] it was more than 1000 nM; in experiment [3], more than 1000 nM; at EGFR WT (Ba/F3 cells) it was more than 1000 nM; in experiment [4], more than 1000 nM.
In the case of `Nc1nccc(-c2[nH]c3c(c2Nc2ccc(F)c(F)c2)C(=O)NCC3)n1` [compound 203], the half-maximal inhibitory concentration (IC50) in experiment [1] is more than 1000 nM; in experiment [2], more than 1000 nM; in experiment [3] it was 100 to 1000 nM; at EGFR WT (Ba/F3 cells), more than 1000 nM; in experiment [4], more than 1000 nM.
On to `COc1c(F)cccc1Nc1c(-c2nnc3cc(C)ccn23)[nH]c2c1C(=O)NCC2` [compound 246], for which the IC50 (in experiment [1]; in experiment [2]; in experiment [3]; at EGFR WT (Ba/F3 cells); in experiment [4]) was more than 1000 nM each time.
Consider `COc1cccc(Nc2c(-c3ccnc(N)n3)[nH]c3c2C(=O)NCC3)c1Cl` [compound 301], for which the IC50 (in experiment [1]; in experiment [2]; in experiment [3]; on EGFR WT (Ba/F3 cells); in experiment [4]) was more than 1000 nM throughout.
As for `COc1c(Nc2c(-c3ccnc(N)n3)[nH]c3c2C(=O)NCC3)ccc(F)c1F` [compound 303], the 50% inhibitory concentration (IC50) in experiment [1] was 100 to 1000 nM; in experiment [2], more than 1000 nM; in experiment [3] it was more than 1000 nM; at EGFR WT (Ba/F3 cells), more than 1000 nM; in experiment [4] it was 100 to 1000 nM.
For the compound `Nc1nccc(-c2[nH]c3c(c2Nc2cccc4ccoc24)C(=O)NCC3)n1` [compound 307], the IC50 in experiment [1] is 100 to 1000 nM; in experiment [2], more than 1000 nM; in experiment [3], more than 1000 nM; on EGFR WT (Ba/F3 cells), more than 1000 nM; in experiment [4], more than 1000 nM.
`COc1c(Cl)cccc1Nc1c(-c2ccnc(N)n2)[nH]c2c1C(=O)NC[C@@H]2C` [186a]: the IC50 in experiment [1] was less than 100 nM; in experiment [2], less than 100 nM; in experiment [3], less than 100 nM; on EGFR WT (Ba/F3 cells), 100 to 1000 nM; in experiment [4], less than 100 nM.
For `COc1c(Cl)cccc1Nc1c(-c2ccnc(NCC3CC(F)(F)C3)c2)[nH]c2c1C(=O)NCC2` [compound 711], the IC50 in experiment [1] is 100 to 1000 nM; in experiment [2] it was more than 1000 nM; in experiment [3], more than 1000 nM; at EGFR WT (Ba/F3 cells) it was more than 1000 nM; in experiment [4] it was more than 1000 nM.
As to `Nc1nccc(-c2[nH]c3c(c2Nc2cccc4c2OCO4)C(=O)NCC3)n1` [compound 306], the IC50 in experiment [1] was 100 to 1000 nM; in experiment [2], more than 1000 nM; in experiment [3], 100 to 1000 nM; on EGFR WT (Ba/F3 cells) it was more than 1000 nM; in experiment [4], more than 1000 nM.
On to `CNc1cc(-c2[nH]c3c(c2Nc2cccc(Cl)c2OC)C(=O)NCC3)ncn1` [compound 284], for which the IC50 (in experiment [1]; in experiment [2]; in experiment [3]; at EGFR WT (Ba/F3 cells); in experiment [4]) was more than 1000 nM each time.
In the case of `COc1c(Cl)cccc1Nc1c(-c2ccnc(N)n2)[nH]c2c1C(=O)N[C@H](C)C2` [187b], the IC50 was less than 100 nM in experiment [1]; less than 100 nM in experiment [2]; 100 to 1000 nM in experiment [3]; 100 to 1000 nM at EGFR WT (Ba/F3 cells); less than 100 nM in experiment [4].
Consider `COc1c(Cl)cccc1Nc1c(-c2ccnc(NC3CC(F)(F)C3)n2)[nH]c2c1C(=O)NCC2` [Compound 712, 3-[(3-chloro-2-methoxyphenyl)amino]-2-[2-[(3,3-difluorocyclobutyl)amino]pyrimidin-4-yl]-1H,5H,6H,7H-pyrrolo[3,2-c] pyridin-4-one], for which the IC50 is 100 to 1000 nM in experiment [1]; more than 1000 nM in experiment [2]; more than 1000 nM in experiment [3]; more than 1000 nM on EGFR WT (Ba/F3 cells); more than 1000 nM in experiment [4].
Consider `COc1c(Cl)cccc1Nc1c(-c2ccnc(NCC(C)(C)O)n2)[nH]c2c1C(=O)NCC2` [compound 288], for which the IC50 (in experiment [1]; in experiment [2]; in experiment [3]; at EGFR WT (Ba/F3 cells); in experiment [4]) was more than 1000 nM in each case.
With `COc1c(Nc2c(-c3ccnc(N)n3)[nH]c3c2C(=O)NCC3)cccc1C(C)=O` [compound 728, 3-[(3-acetyl-2-methoxyphenyl)amino]-2-(2-aminopyrimidin-4-yl)-1H,5H,6H,7H-pyrrolo[3,2-c]pyridin-4-one], the IC50 (in experiment [1]; in experiment [2]; in experiment [3]; on EGFR WT (Ba/F3 cells); in experiment [4]) was more than 1000 nM in each case.
As to `COc1c(Cl)cccc1Nc1c(-c2nc(N)ncc2C#N)[nH]c2c1C(=O)NCC2` [Compound 693, 2-amino-4-[3-[(3-chloro-2-methoxyphenyl)amino]-4-oxo-1H,5H,6H,7H-pyrrolo[3,2-c]pyridin-2-yl]pyrimidine-5-carbonitrile], the IC50 (in experiment [1]; in experiment [2]; in experiment [3]; on EGFR WT (Ba/F3 cells); in experiment [4]) was more than 1000 nM each time.

The term IC50 denotes the point on the concentration scale where inhibition reaches its midpoint.

(Values after US20240101576A1, “HETEROCYCLIC INHIBITORS OF EGFR AND/OR HER2, FOR USE IN THE TREATMENT OF CANCER” (Scorpion Therapeutics, Inc., priority 2020, published 2024).)
